The experiment addresses T1, human capsaicin receptor (Homo sapiens, UniProt Q8NER1).
T1 construct: A cDNA encoding full length human capsaicin receptor recited in U.S. Pat. No. 6,482,611 was subcloned in the plasmid pBK-CMV; expressed in transfected cells
Nature of the experiment: Calcium mobilization assay (Example 6). As to conditions: concentration required to provide a 50% decrease in the fluorescence response of cells exposed to one IC50 of capsaicin. The experiment is classed as cell-based. The procedure:
Human embryonic kidney (HEK293) cells were transfected with the pBK-CMV expression construct encoding the full length human capsaicin receptor using standard methods. The transfected cells were selected for two weeks in media containing G418 (400 μg/ml) to obtain a pool of stably transfected cells. Independent clones were isolated from this pool by limiting dilution to obtain clonal stable cell lines for use in subsequent experiments.
Cells transfected with expression plasmids (as described in Example 4) and thereby expressing human capsaicin receptor are seeded and grown to 70-90% confluency in FALCON black-walled, clear-bottomed 96-well plates (#3904, BECTON-DICKINSON, Franklin Lakes, N.J.). The culture medium is emptied from the 96 well plates and FLUO-3 AM calcium sensitive dye (Molecular Probes, Eugene, Oreg.) is added to each well (dye solution: 1 mg FLUO-3 AM, 440 μL DMSO and 440 μl 20% pluronic acid in DMSO, diluted 1:250 in Krebs-Ringer HEPES (KRH) buffer (25 mM HEPES, 5 mM KCl, 0.96 mM NaH2PO4, 1 mM MgSO4, 2 mM CaCl2, 5 mM glucose, 1 mM probenecid, pH 7.4), 50 μl diluted solution per well). Plates are covered with aluminum foil and incubated at 37° C. for 1-2 hours in an environment containing 5% CO2. After the incubation, the dye is emptied from the plates, and the cells are washed once with KRH buffer, and, resuspended in KRH buffer.
Agonist (e.g., olvanil, capsaicin, or RTX)-induced calcium mobilization is monitored using either FLUOROSKAN ASCENT (Labsystems, Franklin, Mass.) or FLIPR (fluorometric imaging plate reader system, Molecular Devices, Sunnyvale, Calif.) instruments. Varying concentrations of the antagonists ruthenium red or capsazepine (RBI; Natick, Mass.) are added to cells concurrently with agonist (e.g., 25-50 nM capsaicin). For agonist-induced calcium responses, data obtained between 30 and 60 seconds after agonist application are used to generate the IC50 values. KALEIDAGRAPH software (Synergy Software, Reading, Pa.) is used to fit the data to the equation: y=a*(1/(1+(b/x)^c)) to determine the IC50 for the response. In this equation, y is the maximum fluorescence signal, x is the concentration of the agonist or antagonist, a is the Emax, b corresponds to the IC50 value and c is the Hill coefficient.
To measure the ability of a test compound to antagonize (inhibit) the response of cells expressing capsaicin receptors to capsaicin or other vanilloid agonist, the IC50 of capsaicin is first determined. An additional 20 μl of KRH buffer and 1 μl DMSO is added to each well of cells, prepared as described above. 100 μl capsaicin in KRH buffer is automatically transferred by the FLIPR instrument to each well. An 8-point concentration response curve, with final capsaicin concentrations of 1 nM to 3 μM, is used to determine capsaicin IC50.
Test compounds are dissolved in DMSO, diluted in 20 μl KRH buffer so that the final concentration of test compounds in the assay well is between 1 μM and 5 μM, and added to cells prepared as described above. The 96 well plates containing prepared cells and test compounds are incubated in the dark, at room temperature for 0.5 to 6 hours. It is important that the incubation not continue beyond 6 hours. Just prior to determining the fluorescence response, 100 μl capsaicin in KRH buffer at twice the IC50 concentration determined from the concentration response curve is automatically added by the FLIPR instrument to each well of the 96 well plate for a final sample volume of 200 μl and a final capsaicin concentration equal to the IC50. The final concentration of test compounds in the assay wells is between 1 μM and 5 μM. […] Antagonists of the capsaicin receptor decrease this response by at least about 20%, preferably by at least about 50%, and most preferably by at least 80% as compared to matched control. The concentration of antagonist required to provide a 50% decrease is the IC50 for the antagonist, and is preferably below 1 micromolar, 100 nanomolar, 10 nanomolar or 1 nanomolar. […]

T1 sequence (Q8NER1 whole entry): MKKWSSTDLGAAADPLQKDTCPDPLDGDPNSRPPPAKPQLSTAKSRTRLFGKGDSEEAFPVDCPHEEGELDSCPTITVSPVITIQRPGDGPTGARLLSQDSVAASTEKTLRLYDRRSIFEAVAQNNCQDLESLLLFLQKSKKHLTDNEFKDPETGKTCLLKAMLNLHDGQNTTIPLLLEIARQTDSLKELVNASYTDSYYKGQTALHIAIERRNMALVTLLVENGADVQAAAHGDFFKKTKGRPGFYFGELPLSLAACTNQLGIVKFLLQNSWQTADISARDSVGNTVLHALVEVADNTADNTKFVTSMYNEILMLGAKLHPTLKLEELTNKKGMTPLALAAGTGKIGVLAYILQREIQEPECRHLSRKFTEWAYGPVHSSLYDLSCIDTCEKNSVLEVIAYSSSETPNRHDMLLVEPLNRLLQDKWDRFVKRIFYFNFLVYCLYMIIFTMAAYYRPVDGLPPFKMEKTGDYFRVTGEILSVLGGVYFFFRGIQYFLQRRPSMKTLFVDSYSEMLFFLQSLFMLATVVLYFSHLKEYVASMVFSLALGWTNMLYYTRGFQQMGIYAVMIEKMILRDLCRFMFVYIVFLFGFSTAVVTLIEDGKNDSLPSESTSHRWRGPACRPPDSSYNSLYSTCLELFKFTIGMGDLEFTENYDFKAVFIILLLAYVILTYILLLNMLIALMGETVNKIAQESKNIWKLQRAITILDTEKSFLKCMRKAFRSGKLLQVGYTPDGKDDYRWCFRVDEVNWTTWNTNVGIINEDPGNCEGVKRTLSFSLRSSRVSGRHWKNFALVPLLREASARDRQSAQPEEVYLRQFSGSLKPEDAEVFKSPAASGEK

The IC50 is the concentration at which inhibition is half-maximal. With `COCc1cc(Nc2ccc(Cl)cc2)c2ccc(-c3ncccc3C(F)(F)F)nc2n1` [Compound 8, N-(4-chlorophenyl)-2-(methoxymethyl)-7-[3-(trifluoromethyl)pyridin-2-yl]-1,8-naphthyridin-4-amine], the IC50 was not above 1000 nM. For `CC(C)(O)COCc1cc(Nc2ccc(C(F)(F)F)cc2)c2ccc(-c3ncccc3C(F)(F)F)nc2n1` [Compound 82, 2-methyl-1-({4-{[4-(trifluoromethyl)phenyl]amino}-7-[3-(trifluoromethyl)pyridin-2-yl]-1,8-naphthyridin-2-yl}methoxy)propan-2-ol] the value was not above 1000 nM; for `CC(C)(C)c1ccc(Nc2cc(O)nc3cc(-c4ncccc4C(F)(F)F)ccc23)cc1` [Compound 21, 4-[(4-tert-butylphenyl)amino]-7-[3-(trifluoromethyl)pyridin-2-yl]quinolin-2-ol], not above 1000 nM; for `CCOCc1cc(Nc2ccc(C(F)(F)F)cc2)c2ccc(-c3ncccc3C(F)(F)F)nc2n1` [Compound 40, 2-(ethoxymethyl)-N-[4-(trifluoromethyl)phenyl]-7-[3-(trifluoromethyl)pyridin-2-yl]-1,8-naphthyridin-4-amine], not above 1000 nM. To `CC(C)CCNc1cc(Nc2ccc(C(C)(C)C)cc2)c2ccc(-c3ncccc3C(F)(F)F)cc2n1` [Compound 29, N~4~-(4-tert-butylphenyl)-N~2~-isopentyl-7-[3-(trifluoromethyl)pyridin-2-yl]quinoline-2,4-diamine] belongs not above 1000 nM; to `COC(C)c1cc(Nc2ccc(C(F)(F)F)cn2)c2ccc(-c3ncccc3C(F)(F)F)nc2n1` (stereo not drawn) [Compound 119, 2-(1-methoxyethyl)-7-[3-(trifluoromethyl)pyridin-2-yl]-N-[5-(trifluoromethyl)pyridin-2-yl]-1,8-naphthyridin-4-amine], not above 1000 nM; to `CC(C)COCc1cc(Nc2ccc(C(F)(F)F)cc2)c2ccc(-c3ncccc3C(F)(F)F)nc2n1` [Compound 7, 2-(isobutoxymethyl)-N-[4-(trifluoromethyl)phenyl]-7-[3-(trifluoromethyl)pyridin-2-yl]-1,8-naphthyridin-4-amine], not above 1000 nM. For `COCCN(CCOC)Cc1cc(Nc2ccc(C(F)(F)F)cc2)c2ccc(-c3ncccc3C(F)(F)F)nc2n1` [Compound 50, 2-{[bis(2-methoxyethyl)amino]methyl}-N-[4-(trifluoromethyl)phenyl]-7-[3-(trifluoromethyl)pyridin-2-yl]-1,8-naphthyridin-4-amine], the IC50 was not above 1000 nM. As to `FC(F)(F)c1ccc(Nc2ccnc3nc(-c4ncccc4C(F)(F)F)ccc23)cc1` [Compound 35, N-[4-(trifluoromethyl)phenyl]-7-[3-(trifluoromethyl)pyridin-2-yl]-1,8--naphthyridin-4-amine], the half-maximal inhibitory concentration (IC50) was not above 1000 nM. Regarding `Cc1cccnc1-c1ccc2c(Nc3ncc(C(F)(F)F)cn3)ccnc2n1` [Compound 137, 7-(3-methylpyridin-2-yl)-N-[5-(trifluoromethyl)pyrimidin-2-yl]-1,8-naphthyridin-4-amine], the IC50 was not above 1000 nM.

As for `CC(C)COc1cc(Nc2ccc(C(F)(F)F)cc2)c2ccc(-c3ncccc3C(F)(F)F)cc2n1` [Compound 18, 2-isobutoxy-N-[4-(trifluoromethyl)phenyl]-7-[3-(trifluoromethyl)pyridin-2-yl]quinolin-4-amine], the IC50 was not above 1000 nM. For `CC(C)CN(Cc1cc(Nc2ccc(C(F)(F)F)cc2)c2ccc(-c3ncccc3C(F)(F)F)nc2n1)S(C)(=O)=O` [Compound 80, N-isobutyl-N-({4-{[4-(trifluoromethyl)phenyl]amino}-7-[3-(trifluoromethyl)pyridin-2-yl]-1,8-naphthyridin-2-yl}methyl)methanesulfonamide] the value was not above 1000 nM; for `FC(F)(F)c1ccc(Nc2cc(Cl)nc3nc(-c4ncccc4C(F)(F)F)ccc23)cc1` [Compound 34, 2-chloro-N-[4-(trifluoromethyl)phenyl]-7-[3-(trifluoromethyl)pyridin-2-yl]-1,8-naphthyridin-4-amine], not above 1000 nM; for `CCCN(CCCO)Cc1cc(Nc2ccc(C(F)(F)F)cc2)c2ccc(-c3ncccc3C(F)(F)F)nc2n1` [Compound 79], not above 1000 nM.

As for `FC(F)(F)c1ccc(Nc2ccnc3nc(-c4ncccc4C(F)(F)F)ccc23)cn1` [Compound 142, 7-[3-(trifluoromethyl)pyridin-2-yl]-N-[6-(trifluoromethyl)pyridin-3-yl]-1,8-naphthyridin-4-amine], the IC50 was not above 1000 nM. For `CC(C)C(=O)N(C)Cc1cc(Nc2ccc(C(F)(F)F)cc2)c2ccc(-c3ncccc3C(F)(F)F)nc2n1` [Compound 75, N,2-dimethyl-N-({4-{[4-(trifluoromethyl)phenyl]amino}-7-[3-(trifluoromethyl)pyridin-2-yl]-1,8-naphthyridin-2-yl}methyl)propanamide] the value was not above 1000 nM; for `CC(C)(C)c1ccc(Nc2cc(Cl)nc3cc(-c4ncccc4C(F)(F)F)ccc23)cc1` [Compound 22, N-(4-tert-butylphenyl)-2-chloro-7-[3-(trifluoromethyl)pyridin-2-yl]quinolin-4-amine], not above 1000 nM.

On to `FC(F)(F)c1ccc(Nc2ccnc3cc(-c4ncccc4C(F)(F)F)cnc23)nc1` [Compound 108, 7-[3-(trifluoromethyl)pyridin-2-yl]-N-[5-(trifluoromethyl)pyridin-2-yl]-1,5-naphthyridin-4-amine], for which the IC50 was not above 1000 nM. For `NC(=O)c1cc(Nc2ccc(C(F)(F)F)cn2)c2ccc(-c3ncccc3C(F)(F)F)nc2n1` [Compound 126, 7-[3-(trifluoromethyl)pyridin-2-yl]-4-{[5-(trifluoromethyl)pyridin-2-yl]amino}-1,8-naphthyridine-2-carboxamide] the value was not above 1000 nM. For `Cc1ccc(Nc2cc(C3CCC3)nc3nc(-c4ncccc4C(F)(F)F)ccc23)nc1` [Compound 99, 2-cyclobutyl-N-(5-methylpyridin-2-yl)-7-[3-(trifluoromethyl)pyridin-2-yl]-1,8-naphthyridin-4-amine] the value was not above 1000 nM; for `CC(C)COCc1cc(Nc2ccc(C(F)(F)F)cc2)c2ccc(-c3ncccc3Cl)nc2n1` [Compound 52, 7-(3-chloropyridin-2-yl)-2-(isobutoxymethyl)-N-[4-(trifluoromethyl)phenyl]-1,8-naphthyridin-4-amine], not above 1000 nM. On to `COCc1cc(Nc2ccc(C#N)cc2)c2ccc(-c3ncccc3C(F)(F)F)nc2n1` [Compound 11, 4-({2-(methoxymethyl)-7-[3-(trifluoromethyl)pyridin-2-yl]-1,8-naphthyridin-4-yl}amino)benzonitrile], for which the IC50 was not above 1000 nM. On to `CC(C)CCOCc1cc(Nc2ccc(C(F)(F)F)cc2)c2ccc(-c3ncccc3C(F)(F)F)nc2n1` [Compound 42, 2-[(isopentyloxy)methyl]-N-[4-(trifluoromethyl)phenyl]-7-[3-(trifluoromethyl)pyridin-2-yl]-1,8-naphthyridin-4-amine], for which the half-inhibitory concentration (IC50) is not above 1000 nM. Turning to `Cc1ccc(Nc2cc(COCC(C)C)nc3nc(-c4ncccc4C(F)(F)F)ccc23)nc1` [Compound 83, 2-(isobutoxymethyl)-N-(5-methylpyridin-2-yl)-7-[3-(trifluoromethyl)pyridin-2-yl]-1,8-naphthyridin-4-amine], the IC50 was not above 1000 nM.

(Values after patent publication US7488740B2, “Substituted quinolin-4-ylamine analogues” (Neurogen Corporation, priority 2003, dated 2009).)
